Here are results for 6 compounds from PMC9246766 (Pharmaceutical research, 2022).

For series [1] the following is noted: total maximum plasma concentration; ref http://www.micromedexsolutions.com/; cited from earlier work.
Series [2] addresses T1, OCT3 (Homo sapiens, UniProt O75751).
T1 sequence (O75751 1-556): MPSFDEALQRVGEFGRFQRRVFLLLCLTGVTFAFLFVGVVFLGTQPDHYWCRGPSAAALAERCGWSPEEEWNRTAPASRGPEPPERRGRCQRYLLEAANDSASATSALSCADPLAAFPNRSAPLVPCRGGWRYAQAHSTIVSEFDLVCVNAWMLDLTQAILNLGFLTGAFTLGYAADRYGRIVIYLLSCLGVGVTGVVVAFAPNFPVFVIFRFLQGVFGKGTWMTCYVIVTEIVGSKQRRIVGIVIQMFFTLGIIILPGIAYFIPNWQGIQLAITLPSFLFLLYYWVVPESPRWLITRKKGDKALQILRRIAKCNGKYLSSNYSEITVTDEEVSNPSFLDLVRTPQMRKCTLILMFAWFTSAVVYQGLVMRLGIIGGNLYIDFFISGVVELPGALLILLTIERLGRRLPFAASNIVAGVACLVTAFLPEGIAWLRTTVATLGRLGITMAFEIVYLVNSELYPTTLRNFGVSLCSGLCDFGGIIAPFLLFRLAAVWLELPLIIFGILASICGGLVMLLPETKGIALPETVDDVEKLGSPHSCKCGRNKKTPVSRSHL
Briefly: Predicted DDI potential: ratio of plasma CMAX (total or unbound) to predicted OCT3 IC50. As to conditions: unbound plasma CMAX over predicted OCT3 IC50.

For series [3] the following is noted: plasma protein binding used for unbound CMAX; source not given; cited from earlier work.
The target of series [4] is T1, OCT3. Put plainly: High throughput screen: inhibition of OCT3-mediated ASP+ uptake in HEK-293 cells stably expressing OCT3. It counts as cell-based. As to conditions: for inhibition at 20 µM: HEK293.
For series [5], the target named is T1, OCT3. Put plainly: ASP+ uptake kinetics in HEK-293 cells overexpressing OCT3. As to conditions: read-out: Km of OCT3-mediated ASP+ uptake; 2 min uptake, 37°C; OCT3-specific uptake (OCT3 minus empty vector). Format: cell-based.
The conditions of series [6]: cited from earlier work; for FDA product insert: warnings, precautions and major adverse reactions: cardiovascular / CNS related, ref FDA product insert; for Neurological side effects: stated in discussion, ref Table SII, 60.
In series [7] the target is T1, OCT3. Briefly: IC50 determination against OCT3-mediated [14C]metformin uptake in HEK-293 cells overexpressing OCT3. It counts as cell-based.
Series [8] addresses T1, OCT3. Put plainly: IC50 determination against OCT3-mediated ASP+ uptake in HEK-293 cells overexpressing OCT3. Format: cell-based.
Series [9] addresses T1, OCT3. The conditions noted are these: read-out: Experimental IC50; OCT3 inhibition, literature value; ref 1 (Bourdet et al., 2005); cited from earlier work.

Where two headings read alike, the source gives them in different places.

As to `O=C(O)c1ccccc1Nc1cccc(C(F)(F)F)c1` [flufenamic acid], the Cmax in series [1] is 24.2 µM. Besides, at OCT3 [2], the “Unbound CMAX/IC50” value is on record as 0.19. For the same compound, the Protein binding in series [3] is 90%. Moreover, on OCT3 [4], the IC50 was 13 µM and the inhibition at 20 µM was 60.6%.

For `CN(C)c1ccc(/C=C/c2cc[n+](C)cc2)cc1` [ASP^+, 4-Di-1-ASP], the Km at OCT3 [5] stood at 33.3 µM.

For the compound `C[C@@H](O)[C@H]1C(=O)N2C(C(=O)O)=C(S[C@@H]3CN[C@H](C(=O)N(C)C)C3)[C@H](C)[C@H]12` [meropenem], the Cmax in series [1] was 256 µM. Further, the “Unbound CMAX/IC50” value on OCT3 [2] is listed as 23.3. In series [6], the “FDA product insert: warnings, precautions and major adverse reactions” value (“FDA product insert: warnings” below) was “Warnings and precautions: Seizures and other adverse CNS experiences have been reported during treatment”; the Neurological side effects entry was “neurological side effects”. Besides, at OCT3 [4], the IC50 is 10.8 µM and the inhibition at 20 µM amounted to 65%.

Regarding `O=c1n(CCCN2CCN(c3cccc(Cl)c3)CC2)nc2ccccn12` [trazodone], the Cmax in series [1] was 7.6 µM. For the same compound, the “Unbound CMAX/IC50” value on OCT3 [2] is listed as 0.15. Further, the “FDA product insert: warnings” value in [6] is “warnings and precautions related to cardiovascular side-effects”; in series [6] (listed as Trazodone) it was “Warnings and precautions: Cardiac Arrhythmias: Increases the QT interval. Avoid use with drugs that also increase the QT interval and in patients with risk factors for prolonged QT interval”. Moreover, in series [3], the Protein binding is reported as 90%. The IC50 is 2.5 µM against OCT3 [7], 5.2 µM against OCT3 [8] and under 5 µM on OCT3 [4]. On OCT3 [4], this compound had an inhibition at 20 µM of 94.5%.

For the compound `NC(N)=Nc1nc(CSCCC(N)=NS(N)(=O)=O)cs1` [famotidine], the Cmax in series [1] was 308 µM. Also, at OCT3 [2], the “Unbound CMAX/IC50” value was 28.0. Also, in series [6], the “FDA product insert: warnings” value is “Warnings and precautions: Central Nervous System (CNS) Adverse Reactions: Advise elderly patients and those with moderate and severe renal impairment of the risk of CNS adverse reactions, including confusion, delirium, hallucinations, disorientation, agitation, seizures, and lethargy”; the Neurological side effects entry was “neurological side effects”. The Protein binding in [3] is 10%. At OCT3 [4], this compound came in with an IC50 of 9.9 µM and an inhibition at 20 µM of 66.9%. Besides, the IC50 at OCT3 [9] is 6.7 ± 2 µM.

Take `CC1(C)S[C@@H]2[C@H](NC(=O)[C@H](NC(=O)N3CCNC3=O)c3ccccc3)C(=O)N2[C@H]1C(=O)O` [azlocillin]: the Cmax in series [1] is 17.3 µM. In addition, the “Unbound CMAX/IC50” value on OCT3 [2] is given as 1.23. Besides, the Protein binding in series [3] was 30%. Moreover, on OCT3 [4], the IC50 stood at 9.9 µM and the inhibition at 20 µM came out at 66.9%.

One may read the Cmax as the peak of the concentration-time curve. For orientation: IC50 means the point on the concentration scale where inhibition reaches its midpoint. By inhibition is commonly meant the relative decrease from the control value, in per cent. Higher therefore signals strong suppression. Broadly, the Km is the substrate concentration at which the rate is half of its maximum.
